Reference: patent US20250228865A1, “COMPOUNDS FOR ENHANCING READ THROUGH OF GENES CONTAINING PREMATURE TERMINATION CODONS AND METHODS FOR MAKING AND USING THE SAME” (Sanofi US Services Inc., priority 2022, published 2025)

Legend:
[1] = system: recombinant human CFTR carrying the premature stop codon (PTC) mutation R1162X; experiment: CFTR-PTC mutant translation readthrough, Nanoluc tagged CFTR luminescence (R1162X cell line); assay type: cell-based; conditions: for CFTR R1162X ACTIVITY Fold 10 μM G-418: fold over 10 μM G-418, in combination with G418; for EC50: in combination with G418, 16HBE cells, read-out: CFTR R1162X ACTIVITY EC50
Procedure, shortened: (§1)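 16HBE cells stably expressing Nanoluc-tagged human CFTR with G542X or R1162X, in medium with 3 μM VX-809, treated 48 h at 37 °C with compound (10-point, 2-fold, top 50 μM final) alone or with 10 μM G418. Live-cell Nanoluc luminescence normalised to a maximally effective G418 (125-250 μM).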

[2] = system: recombinant human CFTR carrying the premature stop codon (PTC) mutation G542X; experiment: CFTR-PTC mutant translation readthrough, Nanoluc tagged CFTR luminescence (G542X cell line); assay type: cell-based; conditions: in combination with G418, G542X cell line; for CFTR G542X ACTIVITY Fold 10 μM G-418: fold over 10 μM G-418; for EC50: 16HBE cells
Procedure, shortened: as §1

SMILES	CFTR R1162X ACTIVITY Fold 10 μM G-418 [1]	EC50 [1]	CFTR G542X ACTIVITY Fold 10 μM G-418 [2]	EC50 [2]
N#Cc1ncn(-c2ncc(OCc3c(Cl)cccc3Cl)cn2)n1 [1-[5-[(2,6-dichlorophenyl)methoxy]pyrimidin-2-yl]-1,2,4-triazole-3-carbonitrile]	C′ (C′ = <5X)	1 to 10 µM	A′ (A′ = ≥10X)	1 to 10 µM
NC(=O)c1ncn(-c2ncc(OCc3c(Cl)cccc3Cl)cn2)n1 [1-[5-[(2,6-dichlorophenyl)methoxy]pyrimidin-2-yl]-1,2,4-triazole-3-carboxamide]		> 10 µM	C′ (C′ = <5X)	1 to 10 µM
CN(C(N)=O)c1ncc(OCc2c(Cl)cccc2Cl)cn1 [1-[5-[(2,6-dichlorophenyl)methoxy]pyrimidin-2-yl]-1-methyl-urea]	A′ (A′ = ≥10X)	1 to 10 µM	A′ (A′ = ≥10X)	1 to 10 µM
CC1CN(c2ncc(OCc3c(Cl)cccc3Cl)cn2)CCC1O (stereo not drawn) [1-[5-[(2,6-dichlorophenyl)methoxy]pyrimidin-2-yl]-3-methyl-piperidin-4-ol]	A′ (A′ = ≥10X)	< 1 µM	A′ (A′ = ≥10X)	< 1 µM
OC1(c2ccccc2)CCN(c2ncc(OCc3c(Cl)cccc3Cl)cn2)CC1 [1-[5-[(2,6-dichlorophenyl)methoxy]pyrimidin-2-yl]-4-phenyl-piperidin-4-ol]	A′ (A′ = ≥10X)	1 to 10 µM	A′ (A′ = ≥10X)	< 1 µM
OC1CN(c2ncc(OCc3c(Cl)cccc3Cl)cn2)C1 [1-[5-[(2,6-dichlorophenyl)methoxy]pyrimidin-2-yl]azetidin-3-ol]	A′ (A′ = ≥10X)	1 to 10 µM	A′ (A′ = ≥10X)	1 to 10 µM
NC(=O)C1CN(c2ncc(OCc3c(Cl)cccc3Cl)cn2)C1 [1-[5-[(2,6-dichlorophenyl)methoxy]pyrimidin-2-yl]azetidine-3-carboxamide]	A′ (A′ = ≥10X)	1 to 10 µM	B′ (B′ = ≥5X to <10X)	1 to 10 µM
OC1CCCN(c2ncc(OCc3c(Cl)cccc3Cl)cn2)C1 (stereo not drawn) [1-[5-[(2,6-dichlorophenyl)methoxy]pyrimidin-2-yl]piperidin-3-ol]	A′ (A′ = ≥10X)	1 to 10 µM	A′ (A′ = ≥10X)	< 1 µM
OC1CCN(c2ncc(OCc3c(Cl)cccc3Cl)cn2)CC1 [1-[5-[(2,6-dichlorophenyl)methoxy]pyrimidin-2-yl]piperidin-4-ol]	A′ (A′ = ≥10X)	< 1 µM	A′ (A′ = ≥10X)	< 1 µM
NC(=O)C1CCCN(c2ncc(OCc3c(Cl)cccc3Cl)cn2)C1 (stereo not drawn) [1-[5-[(2,6-dichlorophenyl)methoxy]pyrimidin-2-yl]piperidine-3-carboxamide]	A′ (A′ = ≥10X)	< 1 µM	A′ (A′ = ≥10X)	< 1 µM
N#Cc1ccn(-c2ncc(OCc3c(Cl)cccc3Cl)cn2)n1 [1-[5-[(2,6-dichlorophenyl)methoxy]pyrimidin-2-yl]pyrazole-3-carbonitrile]	B′ (B′ = ≥5X to <10X)	< 1 µM	A′ (A′ = ≥10X)	1 to 10 µM
NC(=O)c1ccn(-c2ncc(OCc3c(Cl)cccc3Cl)cn2)n1 [1-[5-[(2,6-dichlorophenyl)methoxy]pyrimidin-2-yl]pyrazole-3-carboxamide]	B′ (B′ = ≥5X to <10X)	< 1 µM	A′ (A′ = ≥10X)	< 1 µM
NC(=O)C1CCN(c2ncc(OCc3c(Cl)cccc3Cl)cn2)C1 (stereo not drawn) [1-[5-[(2,6-dichlorophenyl)methoxy]pyrimidin-2-yl]pyrrolidine-3-carboxamide]	A′ (A′ = ≥10X)	1 to 10 µM	A′ (A′ = ≥10X)	1 to 10 µM
O=C(O)c1ncn(-c2ccc(OCc3c(Cl)cccc3C(F)(F)F)cn2)n1 [1-[5-[[2-chloro-6-(trifluoromethyl)phenyl]methoxy]-2-pyridyl]		< 1 µM	B′ (B′ = ≥5X to <10X)	1 to 10 µM
O=C(O)C1CCN(c2ncc(OCc3c(Cl)cccc3C(F)(F)F)cn2)CC1 [1-[5-[[2-chloro-6-(trifluoromethyl)phenyl]methoxy]pyrimidin-]	A′ (A′ = ≥10X)	1 to 10 µM	A;	1 to 10 µM
O=C(O)C1CCCN(c2ncc(OCc3c(Cl)cccc3C(F)(F)F)cn2)C1 (stereo not drawn) [1-[5-[[2-chloro-6-(trifluoromethyl)phenyl]methoxy]pyrimidin-]		< 1 µM	C′ (C′ = <5X)	1 to 10 µM
Cc1cccc(C(F)(F)F)c1COc1cnc(-n2nnc3ccccc32)nc1 [1-[5-[[2-methyl-6-(trifluoromethyl)phenyl]methoxy]pyrimidin-2-yl]benzotriazole]	A′ (A′ = ≥10X)	< 1 µM	A′ (A′ = ≥10X)	< 1 µM
Cc1cccc(C(F)(F)F)c1COc1cnc(N2CCC(O)CC2)nc1 [1-[5-[[2-methyl-6-(trifluoromethyl)phenyl]methoxy]pyrimidin-2-yl]piperidin-4-ol]	A′ (A′ = ≥10X)	< 1 µM	A′ (A′ = ≥10X)	< 1 µM
O=C1CN(Cc2ccccc2)C(=O)N1c1ncc(OCc2ccccc2)cn1 [1-benzyl-3-(5-benzyloxypyrimidin-2-yl)imidazolidine-2,4-dione]	A′ (A′ = ≥10X)	1 to 10 µM	A′ (A′ = ≥10X)	< 1 µM
CCCCN1CC(=O)N(c2ncc(OCc3c(Cl)cccc3Cl)cn2)C1=O [1-butyl-3-[5-[(2,6-dichlorophenyl)methoxy]pyrimidin-2-yl]imidazolidine-2,4-dione]	C′ (C′ = <5X)	> 10 µM		> 10 µM
Cc1cccc(C(F)(F)F)c1COc1cnc(N2CCS(=O)(=O)C(CO)C2)nc1 (stereo not drawn) [2-(hydroxymethyl)-4-(5-{[2-methyl-6-(trifluoromethyl)phenyl]]		1 to 10 µM	C′ (C′ = <5X)	1 to 10 µM
OCCC1CCN(c2ncc(OCc3c(Cl)cccc3Cl)cn2)CC1 [2-[1-[5-[(2,6-dichlorophenyl)methoxy]pyrimidin-2-yl]-4-piperidyl]ethanol]	B′ (B′ = ≥5X to <10X)	1 to 10 µM	A′ (A′ = ≥10X)	< 1 µM
OCCn1ccc(Nc2ccc(OCc3c(Cl)cccc3Cl)cn2)n1 [2-[3-[[5-[(2,6-dichlorophenyl)methoxy]-2-pyridyl]amino]pyrazol-1-yl]ethanol]	A′ (A′ = ≥10X)	1 to 10 µM	A′ (A′ = ≥10X)	1 to 10 µM
OCCn1cc(-c2ccc(OCc3c(Cl)cccc3Cl)cc2)nn1 [2-[4-[4-[(2,6-dichlorophenyl)methoxy]phenyl]triazol-1-yl]ethanol]	A′ (A′ = ≥10X)	1 to 10 µM	B′ (B′ = ≥5X to <10X)	1 to 10 µM
NC(=O)CN1CCN(c2ncc(OCc3c(Cl)cccc3Cl)cn2)CC1 [2-[4-[5-[(2,6-dichlorophenyl)methoxy]pyrimidin-2-yl]piperazin-1-yl]acetamide]	B′ (B′ = ≥5X to <10X)	1 to 10 µM	B′ (B′ = ≥5X to <10X)	1 to 10 µM
OCCN1CCN(c2ncc(OCc3c(Cl)cccc3Cl)cn2)CC1 [2-[4-[5-[(2,6-dichlorophenyl)methoxy]pyrimidin-2-yl]piperazin-1-yl]ethanol]	A′ (A′ = ≥10X)	1 to 10 µM	A′ (A′ = ≥10X)	1 to 10 µM
